What was measured:
Assay type in all cases: cell-based
Fusobacterium nucleatum = experiment: Twenty-four hour optical density growth in BHI; conditions: F nucleatum
Experimental: (§1) The extent of growth of the tested bacteria in response to selected saccharides (myo-inositol, D-lactitol, D-turanose and N-acetyl-D-mannosamine) was investigated by setting up growth curves in a nutritionally rich medium (brain heart infusion broth (BHI), Oxoid), over 24 hours. Late exponential growth phase liquid cultures were prepared by transferring the respective bacterium from blood agar plates to BHI and overnight incubation at 37° C. in an anaerobic atmosphere for A. viscosus, V. parvula, F. nucleatum, P. gingivalis, P. intermedia, T. forsythia, A. naeslundii, and C. sputigena, and in a 5% CO2 environment for S. salivarius, S. sanguinis, S. mitis, A. actinomycetemcomitans, S. mutans, S. sobrinus and S. gordonii. Overnight cultures were transferred to BHI and adjusted to a concentration of 1×10^7 CFU/ml (colony forming units per ml) by measuring the optical density at 600 nm (OD600) (BioRad SmartSpec 3000). For each strain, 200 μl of the bacterial suspension was added to a 96-well plate containing 20 μl of the respective saccharides. Final concentrations of the saccharides were set to 5, 10, 20 and 25 μmol/ml. […] Plates were incubated as previously described.
(§2) For each combination of bacterium/saccharide, and for each of their respective controls (i.e. the particular bacterium in the nutritionally rich medium with no saccharide), the optical density was measured at 630 nm (OD630) at 0 h and 24 h (Thermo Scientific Multiskan Ascent). Additionally, the OD630 for combinations of bacterium/saccharides grown in a 5% CO2 environment were also measured every hour between 0 h and 9 h.
(§3) The experiment was carried out on three different days (thus providing 3 biological replicas) and on each day the experiment was carried out in quadruple (thus providing 4 technical replicas) for each combination of bacterium with saccharide and for each control. For each day and for each combination, the average (mean) of the values obtained (as detailed above) for the four technical replicas was calculated to provide a single value for each combination on each day. The values shown in Tables 5a,b to 6a,b, below, are the average (mean) of the three single values obtained for each combination of bacterium with saccharide.

Streptococcus mutans = experiment: Twenty-four hour optical density growth in BHI; conditions: for extent of growth: maximal OD630 over 24 hr divided by maximal OD of control (control = 1): S mutans
Experimental: as §1, §2, §3

S. sanguinis = experiment: Twenty-four hour optical density growth in BHI
Experimental: as §1, §2, §3

Streptococcus salivarius = experiment: Twenty-four hour optical density growth in BHI; conditions: S salivarius
Experimental: as §1, §2, §3

Porphyromonas gingivalis = experiment: Twenty-four hour optical density growth in BHI; conditions: P gingivalis
Experimental: as §1, §2, §3

Tannerella forsythia = experiment: Phenotype microarray metabolic activity; conditions: T forsythia
In short: (§4)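 OD492 at 24 h and 48 h, tetrazolium dye reduction (cell respiration) vs no-saccharide control. Cells in nutrient-poor IF-0 fluid, 85% transmittance, saccharide pre-loaded wells, anaerobic, 37 °C, shaking. Mean of 3 days.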

[1] = tested on: Aggregatibacter actinomycetemcomitans; experiment: Phenotype microarray metabolic activity; conditions: A actinomycetemcomitans
In short: as §4

Streptococcus gordonii = experiment: Phenotype microarray metabolic activity; conditions: S gordonii
In short: as §4

S sanguinis = experiment: Phenotype microarray metabolic activity
In short: as §4

Streptococcus mitis = experiment: Phenotype microarray metabolic activity; conditions: S mitis
In short: as §4

Prevotella intermedia = experiment: Phenotype microarray metabolic activity; conditions: P intermedia
In short: as §4

Structure (SMILES)	extent of growth: maximal OD630 over 24 hr divided by maximal OD of control (control = 1) (Fusobacterium nucleatum; 5 μmol/ml)	extent of growth: maximal OD630 over 24 hr divided by maximal OD of control (control = 1) (Fusobacterium nucleatum; 10 μmol/ml)	extent of growth: maximal OD630 over 24 hr divided by maximal OD of control (control = 1) (Fusobacterium nucleatum; 20 μmol/ml)	extent of growth: maximal OD630 over 24 hr divided by maximal OD of control (control = 1) (Fusobacterium nucleatum; 25 μmol/ml)	extent of growth: maximal OD630 over 24 hr divided by maximal OD of control (control = 1) (Streptococcus mutans; 5 μmol/ml)	extent of growth: maximal OD630 over 24 hr divided by maximal OD of control (control = 1) (Streptococcus mutans; 10 μmol/ml)	extent of growth: maximal OD630 over 24 hr divided by maximal OD of control (control = 1) (Streptococcus mutans; 20 μmol/ml)	extent of growth: maximal OD630 over 24 hr divided by maximal OD of control (control = 1) (Streptococcus mutans; 25 μmol/ml)	extent of growth: maximal OD630 over 24 hr divided by maximal OD of control (control = 1) (S. sanguinis; 5 μmol/ml)	extent of growth: maximal OD630 over 24 hr divided by maximal OD of control (control = 1) (S. sanguinis; 10 μmol/ml)	extent of growth: maximal OD630 over 24 hr divided by maximal OD of control (control = 1) (S. sanguinis; 20 μmol/ml)	extent of growth: maximal OD630 over 24 hr divided by maximal OD of control (control = 1) (S. sanguinis; 25 μmol/ml)	extent of growth: maximal OD630 over 24 hr divided by maximal OD of control (control = 1) (Streptococcus salivarius; 5 μmol/ml)	extent of growth: maximal OD630 over 24 hr divided by maximal OD of control (control = 1) (Streptococcus salivarius; 10 μmol/ml)	extent of growth: maximal OD630 over 24 hr divided by maximal OD of control (control = 1) (Streptococcus salivarius; 20 μmol/ml)	extent of growth: maximal OD630 over 24 hr divided by maximal OD of control (control = 1) (Streptococcus salivarius; 25 μmol/ml)	extent of growth: maximal OD630 over 24 hr divided by maximal OD of control (control = 1) (Porphyromonas gingivalis; 5 μmol/ml)	extent of growth: maximal OD630 over 24 hr divided by maximal OD of control (control = 1) (Porphyromonas gingivalis; 10 μmol/ml)	extent of growth: maximal OD630 over 24 hr divided by maximal OD of control (control = 1) (Porphyromonas gingivalis; 20 μmol/ml)	extent of growth: maximal OD630 over 24 hr divided by maximal OD of control (control = 1) (Porphyromonas gingivalis; 25 μmol/ml)	also measured
OC[C@@H](O)[C@@H](O[C@H]1O[C@H](CO)[C@H](O)[C@H](O)[C@H]1O)[C@H](O)[C@@H](O)CO [D-Lactitol, 4-O-α-D-galactopyranosyl-D-glucitol]	0.9876	0.9482	0.9034	0.8805	0.9466	0.9230	0.9036	0.9149	0.8901	0.9323	0.9356	0.9393	1.1349	1.3489	1.3431	1.3159	0.9615	0.9989	0.9706	1.0115	stimulation of growth of S. mutans (Streptococcus mutans; Example 2): does not stimulate growth; metabolic activity: OD 492 nm divided by OD of control (control = 1) (Tannerella forsythia; 24 hrs): 1.0703; metabolic activity: OD 492 nm divided by OD of control (control = 1) (Tannerella forsythia; 48 hrs): 1.1172; metabolic activity: OD 492 nm divided by OD of control (control = 1) ([1]; 24 hrs): 0.8916; metabolic activity: OD 492 nm divided by OD of control (control = 1) ([1]; 48 hrs): 0.8237; metabolic activity: OD 492 nm divided by OD of control (control = 1) (Streptococcus gordonii; 24 hrs): 1.5368; metabolic activity: OD 492 nm divided by OD of control (control = 1) (Streptococcus gordonii; 48 hrs): 1.7842; metabolic activity: OD 492 nm divided by OD of control (control = 1) (S sanguinis; 24 hrs): 1.0364; metabolic activity: OD 492 nm divided by OD of control (control = 1) (S sanguinis; 48 hrs): 1.0188; metabolic activity: OD 492 nm divided by OD of control (control = 1) (Streptococcus mitis; 24 hrs): 1.0047; metabolic activity: OD 492 nm divided by OD of control (control = 1) (Streptococcus mitis; 48 hrs): 0.9006; metabolic activity: OD 492 nm divided by OD of control (control = 1) (Prevotella intermedia; 24 hrs): 0.9834; metabolic activity: OD 492 nm divided by OD of control (control = 1) (Prevotella intermedia; 48 hrs): 0.9481
OC[C@H]1O[C@@](O)(CO)[C@@H](O[C@H]2O[C@H](CO)[C@@H](O)[C@H](O)[C@H]2O)[C@@H]1O [D-Turanose, α-D-glucopyranosyl-(1→3)-α-D-fructofuranose]	0.9458	0.9456	0.9285	0.9348	1.0547	0.9829	0.9244	0.9121	0.8399	0.8356	0.8262	0.7991	0.9483	0.9662	0.9401	0.9445	0.9385	0.9601	0.9183	0.9574	metabolic activity: OD 492 nm divided by OD of control (control = 1) (Tannerella forsythia; 24 hrs): 1.0435; metabolic activity: OD 492 nm divided by OD of control (control = 1) (Tannerella forsythia; 48 hrs): 1.1254; metabolic activity: OD 492 nm divided by OD of control (control = 1) ([1]; 24 hrs): 1.0170; metabolic activity: OD 492 nm divided by OD of control (control = 1) ([1]; 48 hrs): 1.2549; metabolic activity: OD 492 nm divided by OD of control (control = 1) (Streptococcus gordonii; 24 hrs): 1.7899; metabolic activity: OD 492 nm divided by OD of control (control = 1) (Streptococcus gordonii; 48 hrs): 2.1615; metabolic activity: OD 492 nm divided by OD of control (control = 1) (S sanguinis; 24 hrs): 1.3458; metabolic activity: OD 492 nm divided by OD of control (control = 1) (S sanguinis; 48 hrs): 1.5207; metabolic activity: OD 492 nm divided by OD of control (control = 1) (Streptococcus mitis; 24 hrs): 1.2969; metabolic activity: OD 492 nm divided by OD of control (control = 1) (Streptococcus mitis; 48 hrs): 1.3856; metabolic activity: OD 492 nm divided by OD of control (control = 1) (Prevotella intermedia; 24 hrs): 1.1121; metabolic activity: OD 492 nm divided by OD of control (control = 1) (Prevotella intermedia; 48 hrs): 1.2058

Reference: patent US11419806B2, “Prebiotic oral care methods using a saccharide” (Colgate-Palmolive Company, priority 2013, dated 2022)
